Measured values taken from ChEMBL document CHEMBL1138864, “Synthesis of novel caspase inhibitors for characterization of the active caspase proteome in vitro and in vivo” (J Med Chem, 2006).
Active and inactive are the calls of the source. The calls are words filed in the database; no cut-off is given here.

Assays:
Jurkat [1] = test: Inhibition of etoposide-induced apoptosis in human Jurkat T cells at 10 uM; format: functional, cell-based
Jurkat [2] = test: Inhibition of etoposide-induced apoptosis in human Jurkat T cells at 1 uM; format: functional, cell-based

Question: How did the Activity (Jurkat [1]) turn out when `Cc1cccc(C)c1C(=O)OCC(=O)[C@H](CC(=O)O)NC(=O)[C@H](CCCCNc1ccc([N+](=O)[O-])cc1[N+](=O)[O-])NC(=O)[C@H](CCC(=O)O)NC(=O)OCc1ccccc1` was run?
Answer: Active

Question: What about the Activity (Jurkat [2]) of the same compound?
Answer: Active
